# Experimental data reported in patent US20240142474A1, “Opsins as Chemosensory Receptors and Related Methods” (The Regents of the University of California, priority 2021, published 2024).
# Entries after “also recorded” stand apart in the source; their conditions may differ.
# What was measured:
# OPN1SW [1] = biological target: T1, OPN1SW (Mus musculus, UniProt P51491); test: TANGO assay (beta-arrestin recruitment, luciferase reporter) in HTLA cells, OPN1SW; type: cell-based; conditions: 4 hours
# T1 construct: expressed in transfected cells; host or cells: HTLA cells (HEK293 line with tTA-dependent luciferase reporter and beta-arrestin2-TEV fusion)
# T1 sequence (P51491 1-346): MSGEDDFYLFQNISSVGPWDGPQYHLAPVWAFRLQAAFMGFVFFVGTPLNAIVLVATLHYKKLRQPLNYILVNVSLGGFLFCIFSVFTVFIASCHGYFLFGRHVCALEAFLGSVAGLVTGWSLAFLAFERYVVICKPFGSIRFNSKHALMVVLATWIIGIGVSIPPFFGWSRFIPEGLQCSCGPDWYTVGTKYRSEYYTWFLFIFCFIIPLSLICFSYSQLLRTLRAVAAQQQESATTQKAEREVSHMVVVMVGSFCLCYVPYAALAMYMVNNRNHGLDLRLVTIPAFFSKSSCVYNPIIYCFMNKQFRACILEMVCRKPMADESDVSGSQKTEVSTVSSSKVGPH
# Description: (§1) For example, in one implementation the chemosensory opsin activation detection element comprises a TANGO assay (Transcriptional Activation Following Arrestin Translocation), as known in the art, for example, as described by Kroeze et al., 2015. PRESTO-Tango as an open-source resource for interrogation the druggable human GPCRome. Nat Struct Mol Biol 22, 362-369. In the TANGO systems of the invention, a cell is engineered to express a chemosensory opsin in the form of a fusion protein, wherein the opsin fusion protein comprises an optional membrane trafficking signal (e.g. HA), an optional FLAG tag or like epitope to facilitate detection, and a transcriptional activator which induces the expression of a reporter gene, such as luciferase, wherein the transcriptional activator is joined to an intracellular portion of the opsin, for example, the […], by a cleavage sequence. The cells of the TANGO system are further engineered to express a second fusion protein comprising a beta-arrestin fused to a protease, for example, a TEV protease, wherein the protease is capable of cleaving the fusion protein at the cleavage site. The cells of the TANGO system are further engineered to express a reporter protein, e.g. luciferase, under the control of a transcriptional activator, for example, tetracycline-controlled transactivaor (tTA). Ligand binding to the opsin deployed in the TANGO system triggers a conformational change in the opsin that recruits the beta arrestin-protease fusion protein to the opsin, where proximity of the protease induces cleavage of the transcriptional activator, which trafficks to the nucleus and induces the expression of the reporter gene. The TANGO system advantageously allows direct quantification of opsin activation, independent of g protein activity.
# (§2) Human transcriptomics data was mined to identify putative taste receptor proteins. […] However, the role of these opsins in taste perception has not been previously explored. TANGO detection elements employing each of these opsins, in both human and mouse isoforms, were created in HTLA cells (a HEK293 cell line stably expressing a tTA-dependent luciferase reporter and a β-arrestin2-TEV fusion gene), based on protocols in Kroeze et al., 2015. PRESTO-Tango as an open-source resource for interrogation of the druggable human GPCRome. Nat Struct Mol Biol 22, 362-369.
# (§3) In the TANGO assay, the mouse opsin coding sequence with an N-terminal FLAG tag was synthesized. The construct was cloned into a TANGO vector (Addgene, Waterton MA) at the ClaI site (FLAG::opsin). The HTLA cells were transfected in a 6-well format with LIPOFECTAMINE 2000™ (Thermo Fisher Scientific, Inc, Waltham MA, USA) according to the manufacturer's instructions. 6-8 hours post transfection cells weret split 1:3 and the media was switched to DMEM+ 2.5% fetal bovine serum (Thermo Fisher Scientific Inc., Waltham MA, USA). Cells were allowed to grow for 48 hours before splitting the cells onto poly-L-lysine-coated 96-well clear, flat bottom white polystyrene plates in serum-free media. The next day, chemical solutions diluted in TANGO assay buffer (20 mM HEPES, 1× HBSS, pH 7.40) were added to the cells. After 4 hours, the medium and drug solutions were removed and replaced with […] per well of BRIGHTGLO™ reagent (Promega Corporation, Madison WI) diluted 20-fold with TANGO assay buffer. Plates were incubated for 20 minutes at room temperature in the dark before measuring luminescence with a plate reader (Molecular Devices, iD3). The normalized response was calculated using following formula: RLU (relative luminescence units)=test compound RLU−average vehicle control RLU.
# OPN1SW [2] = biological target: T2, OPN1SW (Homo sapiens, UniProt P03999); test: Calcium flux GPCR activation assay with Fluo-8 dye, opsin-expressing HEK293T cells, OPN1SW; type: cell-based; conditions: Fluo-8 calcium flux, data not shown
# T2 construct: expressed in transfected cells; host or cells: HEK293T
# T2 sequence (P03999 1-345): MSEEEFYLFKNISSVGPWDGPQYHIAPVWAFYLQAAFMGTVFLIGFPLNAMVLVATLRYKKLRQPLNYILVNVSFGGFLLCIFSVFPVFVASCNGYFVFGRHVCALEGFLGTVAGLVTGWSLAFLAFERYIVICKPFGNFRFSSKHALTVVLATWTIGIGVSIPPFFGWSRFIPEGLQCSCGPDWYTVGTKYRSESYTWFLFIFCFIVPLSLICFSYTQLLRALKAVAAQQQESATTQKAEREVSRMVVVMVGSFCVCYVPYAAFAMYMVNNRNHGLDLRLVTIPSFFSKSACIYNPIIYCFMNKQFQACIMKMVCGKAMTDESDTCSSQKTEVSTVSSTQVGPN
# Protocol: (§4) These foregoing TANTO results were further confirmed using a second, a calcium flux GPCR activation assay employing Fluo-8 dye, as follows. For this intracellular Ca^2+ measurement, opsin-expressing HEK293T cells were seeded onto 96-well plates (4×10^4 cells per well) in 100 μl of culture medium with reduced serum contents (0.5% of FBS) per well and incubated overnight under standard culture conditions. [Ca2+]i level was assessed the next day after stimulation with bitter compounds used at a different concentration with the SCREEN QUEST Fluo-8 No Wash Calcium Assay Kit (AAT Bioquest, Inc., Sunnyvale, CA, USA) according to the supplier's protocol. Calcium flux was monitored simultaneously by the change in fluorescence (Ex/Em=490/520 nm) following stimulation and with respect to the background fluorescence. [Ca^2+]i was monitored for a period of three minutes, starting before the addition of compounds to the wells and continuing during measurement of the fluorescent signal following cells' stimulation. The obtained fluorescence reads were normalized to the results obtained after stimulation of the cells with the compound solvent.
# OPN3 [3] = biological target: T3, OPN3 (Homo sapiens, UniProt Q9H1Y3); test: Calcium flux GPCR activation assay with Fluo-8 dye, opsin-expressing HEK293T cells, OPN3; type: cell-based; conditions: Fluo-8 calcium flux, data not shown
# T3 construct: expressed in transfected cells; host or cells: HEK293T
# Protocol: as §4
# OPN3 [4] = biological target: T4, OPN3 (Mus musculus, UniProt Q9WUK7); test: TANGO assay (beta-arrestin recruitment, luciferase reporter) in HTLA cells, OPN3; type: cell-based; conditions: 4 hours
# T4 construct: expressed in transfected cells; host or cells: HTLA cells (HEK293 line with tTA-dependent luciferase reporter and beta-arrestin2-TEV fusion)
# Description: as §1, §2, §3
# OPN3 knockout mice = test: Mouse brief-access taste assay (lickometer), OPN3 knockout mice compared to wild type; type: in vivo; conditions: water restricted
# Protocol: Knockout mice were obtained for OPN1SW and OPN3. Two independent OPN3 knockout mice lines were tested for reaction to naringin by a mouse taste preference assay. A Lickometer device (MS-160, Di Log Instruments, Inc.,Tallahassee, FL, USA) was used to train mice and then measure their licking responses to different tastants in brief-access trials. On a given trial, each sipper tube was filled with a solution and made available to a mouse via a small port that opened to a metal/plexiglass chamber housing the animal. The mouse chamber of the lickometer was modified for these studies by adding a plexiglass barrier that restricted the free movement of animals to an approximate 10 by 15 cm area facing the fluid access port. A computer running software that communicated with the lickometer recorded tongue contacts with the metal tip of the sipper tube during licking and the time intervals (precision=1 ms) between consecutive licks (inter-lick intervals). The amount of time that the sipper tube was available through the access port could be programmed and was controlled by the opening of a normally closed, computer-actuated shutter. This feature facilitated presentation of solutions to a mouse for only a few seconds to support measurements of brief-access licking behavior. By indexing initial licking responses to stimuli over short periods, brief-access procedures intend to focus on oral sensory influences and avoid any post-ingestive effect. Groups of three to four mice were run in these studies at one time. Groups always included equal numbers of mutant and wild-type mice to control for temporal factors.
# Training. Mice were restricted from drinking water for 20-22 hours prior to the onset of training. During training, experimentally naive mice learned to receive fluid in the lickometer over a 3-day period. On the first and second day of training, mice were given 30 minutes free access to a single sipper tube of water to familiarize them with accessing fluid in the lickometer device. Each 30 minute period began when the mouse made its first lick on the sipper tube; mice were allowed 30 minutes to make their first lick. On the third day of training, mice were presented with 10 second presentations (i.e., trials) of water to familiarize them with receiving and consuming fluid under a brief-access procedure in the lickometer. On each trial, the shutter that blocked access to the sipper tube was opened and mice were given 10 seconds to lick, and lick data were recorded by the lickometer computer. […]
# Testing. […] For studies, individual Opn3KO, Opn1swKO, Opn4KO, Opn5KO and wild-type mice were evaluated for brief-access licking responses with different agonists. […]
# T3 sequence (Q9H1Y3 whole entry): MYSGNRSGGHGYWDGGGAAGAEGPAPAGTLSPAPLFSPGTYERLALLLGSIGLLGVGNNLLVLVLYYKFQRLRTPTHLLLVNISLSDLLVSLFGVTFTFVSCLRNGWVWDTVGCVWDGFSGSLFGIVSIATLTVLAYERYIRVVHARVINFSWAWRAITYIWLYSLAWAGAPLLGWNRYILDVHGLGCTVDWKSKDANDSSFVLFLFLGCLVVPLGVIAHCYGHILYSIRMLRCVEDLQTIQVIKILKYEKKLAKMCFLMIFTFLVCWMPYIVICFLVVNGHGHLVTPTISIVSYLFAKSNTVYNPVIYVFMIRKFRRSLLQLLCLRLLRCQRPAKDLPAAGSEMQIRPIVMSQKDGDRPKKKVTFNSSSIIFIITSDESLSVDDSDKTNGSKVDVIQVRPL
# T4 sequence (Q9WUK7 whole entry, the tested form may be a part): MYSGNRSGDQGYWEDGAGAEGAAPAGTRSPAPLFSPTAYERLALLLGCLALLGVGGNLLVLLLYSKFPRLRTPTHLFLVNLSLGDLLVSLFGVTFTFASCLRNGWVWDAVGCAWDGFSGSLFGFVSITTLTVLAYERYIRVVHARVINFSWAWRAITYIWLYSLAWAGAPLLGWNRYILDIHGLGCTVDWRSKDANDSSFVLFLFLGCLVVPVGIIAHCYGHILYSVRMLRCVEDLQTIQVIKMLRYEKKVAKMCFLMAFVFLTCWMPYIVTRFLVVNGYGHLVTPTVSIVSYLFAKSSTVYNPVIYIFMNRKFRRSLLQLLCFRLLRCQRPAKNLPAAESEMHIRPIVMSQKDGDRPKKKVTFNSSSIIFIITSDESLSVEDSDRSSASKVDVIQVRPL
Molecule,"activation of OPN1SW, fold-change from baseline luciferase signal vs. log concentration of tastant (OPN1SW [1])",activation of calcium dye OPN3 detection elements (OPN3 [3]),"activation of OPN3, fold-change from baseline luciferase signal vs. log concentration of tastant (OPN3 [4])",also measured
CC1(C)O[C@H]2CC(=O)OC[C@]23[C@H]2CC[C@@]4(C)[C@H](c5ccoc5)OC(=O)[C@H]5O[C@]54[C@]2(C)C(=O)C[C@@H]13 [limonin],activation of OPN1SW; also recorded: activated,,,activation of calcium dye OPN1SW detection elements (OPN1SW [2]): significantly activated in a concentration dependent manner
COc1ccc2c(c1OC)C(=O)O[C@@H]2[C@H]1c2c(cc3c(c2OC)OCO3)CCN1C [noscapine],,significantly activated in a concentration dependent manner,activation of OPN3; also recorded: activated,
O=c1c(O)c(-c2cc(O)c(O)c(O)c2)oc2cc(O)cc(O)c12 [myricetin],,,activation of OPN3,
N#C[C@H](O[C@@H]1O[C@H](CO[C@@H]2O[C@H](CO)[C@@H](O)[C@H](O)[C@H]2O)[C@@H](O)[C@H](O)[C@H]1O)c1ccccc1 [amygdalin],,significantly activated in a concentration dependent manner,activation of OPN3; also recorded: activated,
O=c1c(O)c(-c2ccc(O)c(O)c2)oc2cc(O)cc(O)c12 [quercetin],,,activated OPN3; also recorded: activation of OPN3,"aversion to the bitter flavor (lick ratio), OPN3 knockout mice compared to wild type mice (OPN3 knockout mice): reduced aversion"
Cn1cnc2c1c(=O)[nH]c(=O)n2C [theobromine],activated; also recorded: activation of OPN1SW,,,activation of calcium dye OPN1SW detection elements (OPN1SW [2]): significantly activated in a concentration dependent manner
OC[C@H]1O[C@@H](Oc2ccc(O)cc2)[C@H](O)[C@@H](O)[C@@H]1O [arbutin],,significantly activated in a concentration dependent manner,activation of OPN3; also recorded: activated,
O=c1c(-c2ccc(O)cc2)coc2cc(O)cc(O)c12 [genistein],activated,,,"activation of OPN1SW, fold-change from baseline luciferase signal vs. log concentration of tastant (OPN1SW [1]; listed as genestein): activation of OPN1SW; activation of calcium dye OPN1SW detection elements (OPN1SW [2]): significantly activated in a concentration dependent manner"
O=C(O[C@@H]1Cc2c(O)cc(O)cc2O[C@@H]1c1cc(O)c(O)c(O)c1)c1cc(O)c(O)c(O)c1 [epigallocatechin gallate],,,activation of OPN3,
CC1=CC(=O)[N-]S(=O)(=O)O1.[K+] [asulfame potassium],activation of OPN1SW,,activation of OPN3,
"OC[C@H]1O[C@@H](Oc2ccccc2)[C@H](O)[C@@H](O)[C@@H]1O [phe-β-Glu, Phenyl-β-D-glucopyranoside]",,significantly activated in a concentration dependent manner,activated,"activation of OPN3, fold-change from baseline luciferase signal vs. log concentration of tastant (OPN3 [4]; listed as Phenyl-β-D-glucopyranoside): activation of OPN3"
Oc1cc(O)c2c(c1)O[C@H](c1cc(O)c(O)c(O)c1)[C@H](O)C2 [Epigallocatechin],,,activated OPN3,"aversion to the bitter flavor (lick ratio), OPN3 knockout mice compared to wild type mice (OPN3 knockout mice): reduced aversion"
catechin,,,activated OPN3; also recorded: activation of OPN3,"aversion to the bitter flavor (lick ratio), OPN3 knockout mice compared to wild type mice (OPN3 knockout mice): reduced aversion"
